# Experimental data as given in paper PMC11530130, “Peripherally restricted PICK1 inhibitor mPD5 ameliorates pain behaviors in murine inflammatory and neuropathic pain models” (JCI Insight, 2024).
# “And” between values parts separate entries of the source, which are not always exact repeats. Equal entries are not always repeated.
# Legend:
# naive mice = test: Barnes maze (spatial learning and memory, reversal learning); assay type: in vivo, mouse; settings: for Barnes maze, count per hole (Fig S8D) / Barnes maze, count per hole (Fig S8E): individual animals;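 for Barnes maze, count per hole (Fig S8D): Nose pokes per hole during a probe trial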;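 for Barnes maze, count per hole (Fig S8E): Nose pokes per hole during a probe trial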
# Protocol: Spatial learning and memory.
# On each day, animals were moved from the housing facility to the experimental room and allowed to acclimatize for at least 60 min before initiation of the experiment. All drugs used (PBS or 10 μmol/kg mPD5) were injected s.c. in a 10 μl/g body weight volume 60 min before first placement on the Barnes’ maze on day 1-9 of the experiment. The experiment was divided into Barnes maze habituation, spatial acquisition (training) and probe trials. During habituation to the Barnes maze itself, animals were placed under a cylinder in the middle of the Barnes maze for 10 seconds and then gently guided to the escape box and left there for two min. During spatial acquisition (training), each mouse was placed under a cylinder in the middle of the Barnes maze for 10 sec followed by up to three min of free exploration of the Barnes maze.
# Once the animal entered the escape cage, it was left there for one min before being transferred back to its home cage for 15-20 min. This training was performed four times per day per mouse.
# During probe trials the reference memory of the animal was tested by placing each mouse under a cylinder in the middle of the Barnes maze for 10 sec followed by 90 sec of free exploration of the Barnes maze with no escape cage. On days 6-8, the escape hole was moved 90 degrees, and all mice went through the second bout of training. On day nine, a second probe trial was performed testing the reversal learning of the mice. […]
# Single exposure place preference. […]
# [1] = tested on: mice, CFA model of inflammatory pain; test: CFA model of inflammatory pain, von Frey, i.t. administration; assay type: in vivo, mouse; settings: CFA day 2, i.t. 20 μM, 7 μL
# Protocol: Unless otherwise specified, wild type C57BL/6NRj mice (male and female, aged eight-weeks at the beginning of experiment) were used (Janvier, France). Animals were allowed at least seven days of habituation to the animal facility before initiation of experiment. Mice were group-housed in a temperature-controlled room, maintained on a 12/12hour light/dark cycle (lights on at 6 A.M) with free access to standard rodent chow (Altromin 1342 (Brogaarden, […]
# Drug administration and dosing for animal experiments.
# All compounds were diluted in PBS or saline (depending on control) and administered through different routes i.t. (7 μL/mouse)), i.p. (10 μL/g) or s.c. (10 μL/g)) as indicated. Doses of mPD5 were based on previous studies with TPD5 (6) with a subcutaneous dose-range included in the CFA studies further guiding dose selection for SNI, STZ and CIBP studies. Pregabalin dose was chosen based on previous experience from Phenotype Expertise (Marseilles, France). In the CIBP model, a dose of […] morphine was chosen to avoid hyperactivity, though known to provide only partial pain relief in this model. In remaining experiments, 5 mg/kg morphine was chosen, known to provide full pain relief, except for the conditioned place preference experiment, where 10 mg/kg was used instead in accordance with literature. […]
smiles,measurement,setting,value
"CCCCCCCCCCCCCC(=O)N(CCOCCOCCC(=O)N[C@@H](Cc1c[nH]cn1)C(=O)N[C@@H](Cc1c[nH]c2ccccc12)C(=O)N[C@@H](CC(C)C)C(=O)N[C@@H](CCCCN)C(=O)N[C@H](C(=O)O)C(C)C)CCOCCOCCC(=O)N[C@@H](Cc1c[nH]cn1)C(=O)N[C@@H](Cc1c[nH]c2ccccc12)C(=O)N[C@@H](CC(C)C)C(=O)N[C@@H](CCCCN)C(=O)N[C@H](C(=O)O)C(C)C [mPD5, myristoyl-NPEG4-(HWLKV)2]","Barnes maze, count per hole (Fig S8D)",naive mice; hole position 1,2 (3×) and 1 (2×) and 0 (2×) and 3 (2×)
same,"Barnes maze, count per hole (Fig S8E)",naive mice; hole position 1,3 (6×) and 1 (2×) and 2
same,"Barnes maze, count per hole (Fig S8D)",naive mice; hole position 2,0 (5×) and 1 (3×) and 2
same,"Barnes maze, count per hole (Fig S8E)",naive mice; hole position 2,0 (6×) and 1 (3×)
same,"Barnes maze, count per hole (Fig S8D)",naive mice; hole position 3,1 (4×) and 2 (3×) and 0 (2×)
same,"Barnes maze, count per hole (Fig S8E)",naive mice; hole position 3,1 (7×) and 0 and 2
same,"Barnes maze, count per hole (Fig S8D)",naive mice; hole position 4,0 (4×) and 2 (2×) and 1 (3×)
same,"Barnes maze, count per hole (Fig S8E)",naive mice; hole position 4,1 (6×) and 2 (2×) and 0
same,"Barnes maze, count per hole (Fig S8D)",naive mice; hole position -1,2 (3×) and 3 and 1 (2×) and 6 and 0 and 4
same,"Barnes maze, count per hole (Fig S8E)",naive mice; hole position -1,3 (4×) and 0 (2×) and 1 and 2 and 4
same,"Barnes maze, count per hole (Fig S8D)",naive mice; hole position -2,0 (8×) and 1
same,"Barnes maze, count per hole (Fig S8E)",naive mice; hole position -2,0 (4×) and 1 (4×) and 2
same,"Barnes maze, count per hole (Fig S8D)",naive mice; hole position -3,0 (6×) and 1 (2×) and 2
same,"Barnes maze, count per hole (Fig S8E)",naive mice; hole position -3,1 (5×) and 0 (2×) and 2 (2×)
same,"Barnes maze, count per hole (Fig S8D)",naive mice; hole position -4,0 (6×) and 2 (2×) and 1
same,"Barnes maze, count per hole (Fig S8E)",naive mice; hole position -4,1 (6×) and 0 (2×) and 2
same,"Barnes maze, count per hole (Fig S8D)",naive mice; hole position -5,0 (6×) and 2 (2×) and 1
same,"Barnes maze, count per hole (Fig S8E)",naive mice; hole position -5,1 (4×) and 0 (2×) and 2 (2×) and 3
same,"Barnes maze, count per hole (Fig S8D)",naive mice; hole position -6,0 (6×) and 3 and 1 (2×)
same,"Barnes maze, count per hole (Fig S8E)",naive mice; hole position -6,1 (3×) and 0 (2×) and 2 (3×) and 3
same,"Barnes maze, count per hole (Fig S8D)",naive mice; hole position -7,0
same,"Barnes maze, count per hole (Fig S8E)",naive mice; hole position -7,0
same,"Barnes maze, count per hole (Fig S8D)",naive mice; hole position Goal,2 (2×) and 3 (2×) and 6 (2×) and 1 (2×) and 4
same,"Barnes maze, count per hole (Fig S8E)",naive mice; hole position Goal,4 (3×) and 3 (3×) and 2 (2×) and 1
same,"latency to reach target and total distance moved, probe test day 5","naive mice; s.c. 10 μmol/kg 60 minutes before placement, after 4 days of training",no difference
same,latency to reach the target and total distance moved following reversal learning,"naive mice; s.c. 10 μmol/kg 60 minutes before placement, probe test day 9",no difference was observed
same,distribution of nose pokes between the holes,"naive mice; s.c. 10 μmol/kg, both probe tests",did not differ between groups
same,effect on mechanical hypersensitivity (PWT),[1]; 1 hour and 5 hours after administration,significant relief of mechanical hypersensitivity
same,effect on mechanical hypersensitivity (PWT),[1]; 24 hours after administration,no effect
